Experimental data published in patent EP4685142A1, “TRIAZINE COMPOUND AND USE THEREOF” (Chengdu Zenitar Biomedical Technology Co., Ltd., priority 2023, dated 2024).
Like-named read-outs stand apart in the source and are kept apart here.

How the values were obtained:
[1] = target: T1, NLRP3 inflammasome (Homo sapiens, UniProt Q96P20); assay: Inhibitory activity of NLRP3 inflammasome in human monocytes (THP-1 cells, LPS + Nigericin, IL-1β ELISA); type: cell-based
T1 construct: host or cells: THP-1 cells
Method: 1. Determination of inhibitory activity of NLRP3 inflammasome in human monocytes
Experimental method: THP-1 cells were cultured in RPMI culture medium containing PMA (10 µM), and then inoculated in 48-well plates at a density of 2×10^5 cells/mL, the plates were incubated overnight in a 5% CO2 incubator at 37°C. The next day, the above culture medium was replaced with Opti-MEM culture medium containing 1 µg/mL LPS. After 3 hours, the grown cells were simulated for 40 min with a drug, and then simulated for 40 min with Nigericin (10 µM), and a cell supernatant was harvested for ELISA analysis.
Table 2 Inhibitory activity of NLRP3 inflammasome

[2] = Pharmacokinetic evaluation in Balb/c mice; type: in vivo; details: mouse, in vivo, 5 mg/kg
From the text: 4. Pharmacokinetic evaluation of compounds in Balb/c mice
Experimental purpose: to understand pharmacokinetic properties of the compounds.
Experimental basis: Technical Guidelines for Nonclinical Pharmacokinetic Studies of Chemical Drugs, 2014.
Experimental protocol: the pharmacokinetic properties of the compounds were investigated via intravenous administration and intragastric administration in Balb/c mice.
The blood drug concentration was quantitatively analyzed by LC-MS/MS, and pharmacokinetic parameters were calculated, such as peak concentration (Cmax), area under the concentration-time curve (AUC(0-t)), half-life (T1/2), clearance (CL), volume of distribution at steady state (Vdss), and bioavailability (F).
The results of pharmacokinetic evaluation are shown in Table 5 below: Table 5 Pharmacokinetic test results of compounds in Balb/c mice

[3] = target: T2, hERG potassium ion channel (Homo sapiens, UniProt Q12809); assay: Inhibition of hERG potassium ion channel (CHO cells stably expressing hERG, Qpatch)
Method: (§1) Inhibition experiment of compounds on hERG potassium ion channel
(§2) Cell culture and treatment: CHO cells stably expressing hERG were cultured in cell culture flasks and incubated in a 5% CO2 incubator at 37°C. When a cell density reached 60%-80%, the cell culture medium was aspirated, washed once with PBS, and then digested with Detachin. After digestion, the grown cells were neutralized in the cell culture medium, and then centrifuged, the supernatant was aspirated, the cell culture medium was added again to resuspend the grown cells, and the cell density was adjusted to 2-5×10^6 cells/mL for later use.
(§3) Compound preparation: the compound stock solution was diluted in 100% DMSO, that is, 10 µL compound stock solution was serially diluted in 20 µL DMSO by 3 folds to obtain six concentrations. Six concentrations of the compound (4 µL for each concentration) were diluted in 396 µL extracellular fluid by 100 folds to obtain six intermediate concentrations. Six intermediate concentrations of the compound (80 µL for each concentration) were diluted in 320 µL extracellular fluid by 5 folds to obtain final concentrations to be tested. […] DMSO in a final test concentration was not more than 0.2%, and DMSO at this concentration had no effect on the hERG potassium channel. The entire dilution process for compound preparation was performed using Bravo instrument.
(§4) Electrophysiological recording process: the processes of single-celled high-impedance sealing and whole-cell mode formation were all automatically completed by Qpatch instrument, under the whole-cell recording mode, the cells were clamped at -80 mV, before 5-second + 40 mV depolarization stimulus, the cells were given 50-millisecond - 50 mV pre-voltage, followed by repolarization to -50 mV for 5 seconds, and then returning to -80 mV. The voltage stimulus was given every 15 seconds, after 2 minutes of recording, extracellular fluid was recorded for 5 min, and then a drug was administrated, started from a lowest test concentration, each test concentration of the compound was given for 2.5 minutes, after all concentrations were given consecutively, a positive control compound Cisapride (3 µM) was given. At least 3 cells were tested for each concentration (n≥3).
(§5) Data processing: data analysis and processing were performed using GraphPad Prism 5.0 and Excel software. IC50 values of the compounds were calculated by fitting with the following equation using GraphPad Prism 5 software: Y = Bottom + (Top−Bottom)/(1+10^(∧)((LogIC50−X)*HillSlope)); [formula] where X is the Log value of the test sample concentration, Y is an inhibition percentage at a corresponding concentration, and Bottom and Top are the minimum and maximum inhibition percentages, respectively.

[4] = In vivo brain-to-plasma ratio in mice; details: for Brain / Plasma: male mice, oral 10 mg/kg
Method: Evaluation of in vivo brain-to-plasma ratio of compound
Experimental purpose: to obtain the brain-to-plasma ratio of the compound
Experimental protocol: the brain-to-plasma ratio of the compound was investigated by monitoring the content of the compound in mouse brain and plasma.
Experimental procedure: the compound was weighed, followed by adding a small amount of DMSO and adding a sodium chloride solution for injection, to prepare a 10 mg · mL^-1 compound solution for administration. Male mice were orally administered at 10 mg · kg^-1, and whole plasma and whole brain tissue were sampled at 1 h and 6 h after administration (n=3). […] A centrifuge tube was weighed as M1, the centrifuge tube containing the whole brain tissue was weighed as M2, the centrifuge tube containing water for homogenization was weighed as M3, and the centrifuge tube after the removal of 30 µL homogenate was weighed as M4.
Standard curve range: 10-10,000 ng·mL^-1. Content of drug in brain = measured value × 0.03 × (M3−M1)/[(M2−M1)×(M3−M4)].

[5] = target: T2, hERG potassium ion channel
Method: as §1, §2, §3, §4, §5

[6] = test system: LPS-induced mice; assay: LPS-induced mouse model, survival; type: in vivo, Balb/c mice; details: for 72h Survival rate: 25 mg/kg oral, 1 h before 10 mg/kg LPS i.p.; for survival status of mice (mice alive) 12h / survival status of mice (mice alive) 24h / survival status of mice (mice alive) 36h / survival status of mice (mice alive) 48h / survival status of mice (mice alive) 72h: 25 mg/kg
[7] = THP-1 cells, PMA, LPS 1 µg/mL 3 h, drug 40 min, Nigericin 10 µM 40 min, IL-1β ELISA, read-out: IC50
[8] = male, mouse, brain/plasma, po, 10 mg/kg
[9] = male, mouse, plasma, po, 10 mg/kg
[10] = PO, Balb/c mice, read-out: AUC(0-t)
[11] = PO, Balb/c mice, read-out: Cmax
[12] = PO, Balb/c mice, read-out: T1/2 (converted)

T1 sequence (Q96P20 whole entry): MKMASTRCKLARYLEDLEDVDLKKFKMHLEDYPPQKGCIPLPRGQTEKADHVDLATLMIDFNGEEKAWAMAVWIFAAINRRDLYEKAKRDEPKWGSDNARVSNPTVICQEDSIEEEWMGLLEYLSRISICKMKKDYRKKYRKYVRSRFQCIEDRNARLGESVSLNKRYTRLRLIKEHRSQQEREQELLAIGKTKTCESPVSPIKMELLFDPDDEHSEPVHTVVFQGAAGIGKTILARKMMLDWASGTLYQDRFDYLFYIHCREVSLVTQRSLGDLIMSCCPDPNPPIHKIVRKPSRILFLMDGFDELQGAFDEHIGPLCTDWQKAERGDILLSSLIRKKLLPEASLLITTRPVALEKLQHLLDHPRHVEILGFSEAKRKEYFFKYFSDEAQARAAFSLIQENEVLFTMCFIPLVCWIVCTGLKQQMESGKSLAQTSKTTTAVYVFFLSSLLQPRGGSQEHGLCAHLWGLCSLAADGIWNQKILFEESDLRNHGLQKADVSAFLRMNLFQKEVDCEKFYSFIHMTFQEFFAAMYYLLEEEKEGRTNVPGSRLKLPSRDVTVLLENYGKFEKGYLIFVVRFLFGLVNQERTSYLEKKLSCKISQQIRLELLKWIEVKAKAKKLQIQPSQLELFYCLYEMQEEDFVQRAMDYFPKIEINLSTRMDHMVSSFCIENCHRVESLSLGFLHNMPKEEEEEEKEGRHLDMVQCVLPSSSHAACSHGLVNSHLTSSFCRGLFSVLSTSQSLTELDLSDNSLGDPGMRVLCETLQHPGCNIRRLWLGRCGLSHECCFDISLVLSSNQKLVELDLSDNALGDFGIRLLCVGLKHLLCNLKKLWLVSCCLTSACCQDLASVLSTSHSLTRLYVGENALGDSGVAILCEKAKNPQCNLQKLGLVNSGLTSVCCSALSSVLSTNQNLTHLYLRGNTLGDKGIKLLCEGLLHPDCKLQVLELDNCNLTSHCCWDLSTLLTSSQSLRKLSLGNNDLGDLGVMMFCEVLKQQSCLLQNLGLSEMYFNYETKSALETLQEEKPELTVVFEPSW
T2 sequence (Q12809 whole entry): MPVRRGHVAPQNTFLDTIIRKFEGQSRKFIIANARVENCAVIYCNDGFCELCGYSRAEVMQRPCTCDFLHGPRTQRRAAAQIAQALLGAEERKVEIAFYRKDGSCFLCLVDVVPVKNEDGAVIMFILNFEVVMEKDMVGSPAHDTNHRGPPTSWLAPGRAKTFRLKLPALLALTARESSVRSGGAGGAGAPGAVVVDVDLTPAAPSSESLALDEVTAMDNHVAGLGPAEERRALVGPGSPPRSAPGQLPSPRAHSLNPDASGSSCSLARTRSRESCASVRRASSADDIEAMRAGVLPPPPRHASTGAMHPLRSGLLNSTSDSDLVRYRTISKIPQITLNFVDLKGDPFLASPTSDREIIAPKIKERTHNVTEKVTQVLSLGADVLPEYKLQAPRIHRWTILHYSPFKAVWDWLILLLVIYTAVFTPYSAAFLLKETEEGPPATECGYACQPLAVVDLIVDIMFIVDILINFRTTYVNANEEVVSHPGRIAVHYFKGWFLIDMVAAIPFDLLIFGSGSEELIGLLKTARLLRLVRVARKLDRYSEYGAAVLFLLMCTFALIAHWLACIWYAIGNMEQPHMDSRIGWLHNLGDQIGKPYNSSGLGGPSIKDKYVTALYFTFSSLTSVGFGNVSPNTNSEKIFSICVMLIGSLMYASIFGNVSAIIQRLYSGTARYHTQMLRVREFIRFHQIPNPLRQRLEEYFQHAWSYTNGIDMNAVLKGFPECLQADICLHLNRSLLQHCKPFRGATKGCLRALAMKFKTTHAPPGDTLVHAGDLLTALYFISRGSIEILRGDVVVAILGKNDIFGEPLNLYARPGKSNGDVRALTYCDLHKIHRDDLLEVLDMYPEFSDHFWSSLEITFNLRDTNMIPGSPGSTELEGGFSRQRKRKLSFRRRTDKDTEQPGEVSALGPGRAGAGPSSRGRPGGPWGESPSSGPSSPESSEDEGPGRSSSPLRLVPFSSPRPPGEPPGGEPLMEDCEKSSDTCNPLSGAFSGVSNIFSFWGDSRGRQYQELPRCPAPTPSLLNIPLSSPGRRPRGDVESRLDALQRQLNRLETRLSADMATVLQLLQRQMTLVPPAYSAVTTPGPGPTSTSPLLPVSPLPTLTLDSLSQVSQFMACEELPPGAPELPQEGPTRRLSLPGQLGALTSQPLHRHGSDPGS

SMILES: CCN1CCC[C@@H](Nc2nnc(-c3ccc4sccc4c3O)n(CC)c2=O)C1 [Compound 12, (R)-4-ethyl-6-((1-ethylpiperidin-3-yl)amino)-3-(4-hydroxybenzo[b]thiophen-5-yl)-1,2,4-triazi n-5(4H)-ketone]
- IC50 [1, 7]: 7.2 nM
- AUC(0-t) ([2]; male, Balb/c, po): 12800 ng·h/mL
- Cmax ([2]; male, Balb/c, po): 2740 ng/mL
- half-life ([2]; male, Balb/c, po): 3.08 h
- 20 uM Inhibition ratio [3]: 52.99%
- Brain ([4]; 1 h): 498 ng/g
- Brain ([4]; 6 h): 215 ng/g
- Kp at 1 h [4, 8]: 0.13
- Kp at 6 h [4, 8]: 0.13
- concentration at 1 h [4, 9]: 3840 ng/mL
- concentration at 6 h [4, 9]: 1700 ng/mL

SMILES: Cn1c(-c2ccc3sccc3c2O)nnc(N[C@@H]2CCCN(C3CC3)C2)c1=O [Compound 16, (R)-6-((1-cyclopropylpiperidin-3-yl)amino)-3-(4-hydroxybenzo[b]thiophen-5-yl)-4-methyl-1,2,4-triazin-5(4H)-ketone]
- IC50 [1, 7]: 1.62 nM
- inhibitory effects on the hERG potassium ion channel (conclusion in words) ([5]; human): Conclusion: compounds 3, 4, 5, 9, 16, 17, 24, 30, 40, 41, 42, 43, 54 and others have weak inhibitory effects on the hERG potassium ion channel, having weaker inhibitory effect than the reference compound Ref-1.
- 20 uM Inhibition ratio [3]: 35.63%

SMILES: C#Cc1ccc(-c2nnc(N[C@@H]3CCCN(C)C3)c(=O)n2C)c(O)c1 [Compound 24, (R)-3-(4-ethynyl-2-hydroxyphenyl)-4-methyl-6-((1-methylpiperidin-3-yl)amino)-1,2,4-triazin-5(4H)-ketone]
- IC50 [1, 7]: 12 nM
- inhibitory effects on the hERG potassium ion channel (conclusion in words) ([5]; human): Conclusion: compounds 3, 4, 5, 9, 16, 17, 24, 30, 40, 41, 42, 43, 54 and others have weak inhibitory effects on the hERG potassium ion channel, having weaker inhibitory effect than the reference compound Ref-1.
- 20 uM Inhibition ratio [3]: 6.83%

SMILES: Cn1c(-c2ccc3sccc3c2O)nnc(N[C@@H]2CCCN(C3CC(F)(F)C3)C2)c1=O [Compound 5, (R)-6-((1-(3,3-difluorocyclobutyl)piperidin-3-yl)amino)-3-(4-hydroxybenzo[b]thiophen-5-yl)-4-methyl-1,2,4-triazin-5(4H)-ketone]
- IC50 [1, 7]: 3.56 nM
- inhibitory effects on the hERG potassium ion channel (conclusion in words) ([5]; human): Conclusion: compounds 3, 4, 5, 9, 16, 17, 24, 30, 40, 41, 42, 43, 54 and others have weak inhibitory effects on the hERG potassium ion channel, having weaker inhibitory effect than the reference compound Ref-1.
- 20 uM Inhibition ratio [3]: 19.97%

SMILES: Cn1c(-c2ccc3sccc3c2O)nnc(N[C@@H]2CCCN(CC3CC3)C2)c1=O [Compound 8, (R)-6-((1-(cyclopropylmethyl)piperidin-3-yl)amino)-3-(4-hydroxybenzo[b]thiophen-5-yl)-4-methyl-1,2,4-triazin-5(4H)-ketone]
- IC50 [1, 7]: 1.92 nM
- 20 uM Inhibition ratio [3]: 69.48%

SMILES: Cn1c(-c2ccc3sccc3c2O)nnc(N[C@@H]2CCCC[C@H]2O)c1=O [Compound 30, 3-(4-hydroxybenzo[b]thiophen-5-yl)-6-(((1R,2R)-2-hydroxycyclohexyl)amino)-4-methyl-1,2,4-triazin-5(4H)-ketone.]
- IC50 [1, 7]: 1.97 nM
- inhibitory effects on the hERG potassium ion channel (conclusion in words) ([5]; human): Conclusion: compounds 3, 4, 5, 9, 16, 17, 24, 30, 40, 41, 42, 43, 54 and others have weak inhibitory effects on the hERG potassium ion channel, having weaker inhibitory effect than the reference compound Ref-1.
- AUC(0-t) ([2]; male, Balb/c, po): 4380 ng·h/mL
- Cmax ([2]; male, Balb/c, po): 9810 ng/mL
- half-life ([2]; male, Balb/c, po): 0.19 h
- 20 uM Inhibition ratio [3]: 1.70%

SMILES: CC(C)n1c(-c2ccc3sccc3c2O)nnc(N[C@@H]2CCCN(C)C2)c1=O [Compound 54, (R)-3-(4-hydroxybenzo[b]thiophen-5-yl)-4-isopropyl-6-((1-methylpiperidin-3-yl)amino)-1,2,4-triazin-5(4H)-ketone]
- 20 uM Inhibition ratio [5]: 7.77%
- inhibitory effects on the hERG potassium ion channel (conclusion in words) [5]: Conclusion: compounds 3, 4, 5, 9, 16, 17, 24, 30, 40, 41, 42, 43, 54 and others have weak inhibitory effects on the hERG potassium ion channel, having weaker inhibitory effect than the reference compound Ref-1.
- AUC(0-t) [2, 10]: 7470 ng·h/mL
- Cmax [2, 11]: 1550 ng/mL
- half-life [2, 12]: 4.25 h

SMILES: Cc1nc(N[C@@H]2CCCC[C@H]2O)nnc1-c1ccc(C(F)(F)F)cc1O [Ref-2, reference compound]
- IC50 [1]: 14.7 nM
- AUC(0-t) [2, 10]: 270 ng·h/mL
- Cmax [2, 11]: 246 ng/mL
- half-life [2, 12]: 2.6 h
- Brain ([4]; 1 h): 168 ng/g
- Plasma ([4]; 1 h): 264 ng/mL
- Plasma ([4]; 6 h): 8.27 ng/mL
- Kp at 1 h ([4]; mouse, brain, po, 10 mg/kg): 0.63
- Kp at 6 h ([4]; mouse, brain, po, 10 mg/kg): 0.17
- 72h Survival rate [6]: 50%
- survival status of mice (mice alive) 12h ([6]; First cage (5 mice)): 5
- survival status of mice (mice alive) 24h ([6]; First cage (5 mice)): 5
- survival status of mice (mice alive) 36h ([6]; First cage (5 mice)): 4
- survival status of mice (mice alive) 48h ([6]; First cage (5 mice)): 2
- survival status of mice (mice alive) 72h ([6]; First cage (5 mice)): 2
- survival status of mice (mice alive) 12h ([6]; Second cage (5 mice)): 5
- survival status of mice (mice alive) 24h ([6]; Second cage (5 mice)): 4
- survival status of mice (mice alive) 36h ([6]; Second cage (5 mice)): 4
- survival status of mice (mice alive) 48h ([6]; Second cage (5 mice)): 3
- survival status of mice (mice alive) 72h ([6]; Second cage (5 mice)): 3

SMILES: Cn1c(-c2ccc3sccc3c2O)nnc(N[C@@H]2CCCN(CCO)C2)c1=O [Compound 9, (R)-3-(4-hydroxybenzo[b]thiophen-5-yl)-6-((1-(2-hydroxyethyl)piperidin-3-yl)amino)-4-methyl-1,2,4-triazin-5(4H)-ketone]
- IC50 [1]: 3.95 nM
- inhibitory effects on the hERG potassium ion channel (conclusion in words) [5]: Conclusion: compounds 3, 4, 5, 9, 16, 17, 24, 30, 40, 41, 42, 43, 54 and others have weak inhibitory effects on the hERG potassium ion channel, having weaker inhibitory effect than the reference compound Ref-1.
- AUC(0-t) [2, 10]: 4400 ng·h/mL
- Cmax [2, 11]: 2280 ng/mL
- half-life [2, 12]: 0.85 h
- 20 uM Inhibition ratio [3]: 8.83%
- Plasma ([4]; 1 h): 1830 ng/mL
- Plasma ([4]; 6 h): 46 ng/mL
- Kp at 1 h ([4]; mouse, brain, po, 10 mg/kg): 0.04
- Kp at 6 h ([4]; mouse, brain, po, 10 mg/kg): 0.46
- 72h Survival rate [6]: 70%
- survival status of mice (mice alive) 12h ([6]; First cage (5 mice)): 5
- survival status of mice (mice alive) 24h ([6]; First cage (5 mice)): 5
- survival status of mice (mice alive) 36h ([6]; First cage (5 mice)): 5
- survival status of mice (mice alive) 48h ([6]; First cage (5 mice)): 5
- survival status of mice (mice alive) 72h ([6]; First cage (5 mice)): 3
- survival status of mice (mice alive) 12h ([6]; Second cage (5 mice)): 5
- survival status of mice (mice alive) 24h ([6]; Second cage (5 mice)): 5
- survival status of mice (mice alive) 36h ([6]; Second cage (5 mice)): 5
- survival status of mice (mice alive) 48h ([6]; Second cage (5 mice)): 5
- survival status of mice (mice alive) 72h ([6]; Second cage (5 mice)): 4

SMILES: CCN1C[C@H](F)C[C@@H](Nc2nnc(-c3ccc(C4CC4)cc3O)n(C)c2=O)C1 [Compound 53, 3-(4-cyclopropyl-2-hydroxyphenyl)-6-(((3R,5R)-1-ethyl-5-fluoropiperidin-3-yl)amino)-4-met hyl-1,2,4-triazin-5 (4H)-ketone]
- IC50 [1]: 18.7 nM
- AUC(0-t) [2, 10]: 1400 ng·h/mL
- Cmax [2, 11]: 1420 ng/mL
- half-life [2, 12]: 3.85 h

SMILES: CN1C[C@H](F)C[C@@H](Nc2nnc(-c3ccc4sc(F)cc4c3O)n(C)c2=O)C1 [Compound 52, 3-(2-fluoro-4-hydroxybenzo[b]thiophen-5-yl)-6-{[(3R,5R)-5-fluoro-1-methylpiperidin-3-yl]amino}-4-methyl-4H,5H-1,2,4-triazin-5-ketone]
- IC50 [1]: 5.06 nM
- AUC(0-t) [2, 10]: 21400 ng·h/mL
- Cmax [2, 11]: 8570 ng/mL
- half-life [2, 12]: 3.16 h

SMILES: COCCn1c(-c2ccc3sccc3c2O)nnc(N[C@@H]2CCCN(C)C2)c1=O [Compound 51, 3-(4-hydroxybenzo[b]thiophen-5-yl)-6-{[(3R)-1-methylpiperidin-3-yl]amino}-4-(2-methoxyethyl)-4H,5H-1,2,4-triazin-5-ketone]
- IC50 [1]: 180 nM
- AUC(0-t) [2, 10]: 9780 ng·h/mL
- Cmax [2, 11]: 2940 ng/mL
- half-life [2, 12]: 2.39 h

SMILES: [2H]C([2H])([2H])C([2H])([2H])N1CCC[C@@H](Nc2nnc(-c3ccc4sccc4c3O)n(C)c2=O)C1 [Compound 6, (R)-6-((1-(ethyl-d5)piperidin-3-yl)amino)-3-(4-hydroxybenzo[b]thiophen-5-yl)-4-methyl-1,2,4-triazin-5(4H)-ketone]
- IC50 [1]: 3.01 nM
- AUC(0-t) [2, 10]: 8300 ng·h/mL
- Cmax [2, 11]: 1340 ng/mL
- half-life [2, 12]: 3.18 h
